Patent US9868748B2, “Thiazolopyrrolidine inhibitors of ROR- γ” (Vitae Pharmaceuticals, Inc., priority 2013, dated 2018)
Read-outs that look alike come from different tables or passages of the source.

What was measured:
[1] = molecular target: full-length RORγt in Jurkat cells (Homo sapiens (Human), UniProt P51449); assay: RORγt 5xRORE Assay in Jurkat Cells (Assay 2); assay type: cell-based; conditions: Nanoluc luciferase reporter, 16-18 hrs
How it was run: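 Inverse agonist activity was read as NanoGlo luminescence from conditioned medium after 16–18 h compound exposure (37 °C, 0.1% DMSO final). The cells were Jurkat, transiently transfected with RORγt and a secNluc reporter carrying five RORE repeats, seeded 80,000 per well in delipidated-serum RPMI.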

[2] = molecular target: recombinant RORγ Ligand Binding Domain (LBD) protein (Homo sapiens (Human), UniProt P51449); assay: Radio-Ligand RORγ Binding Assay (Assay 1); conditions: competition with 25-hydroxy [26,27-3H]-cholesterol, SPA, read-out: RORγ Binding Ki Range*
How it was run: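 Recombinant human RORγ ligand binding domain (6×His-GST fusion, 24 nM stock) competed with tritiated 25-hydroxycholesterol (8.6 nM stock) in HEPES buffer pH 7.4 with detergents and DTT; poly-Lys YSi SPA beads, room temperature, tritium SPA signal. Four-parameter IC50 from semi-log dilutions, normalised to DMSO and 10 μM T0901317, then Ki via KD equation.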

[3] = Table 9, read-out: RORγt5X IC50 Range*
[4] = Table 8, read-out: RORγt5X IC50 Range*

Chain of recombinant RORγ Ligand Binding Domain (LBD) protein (P51449 269-508): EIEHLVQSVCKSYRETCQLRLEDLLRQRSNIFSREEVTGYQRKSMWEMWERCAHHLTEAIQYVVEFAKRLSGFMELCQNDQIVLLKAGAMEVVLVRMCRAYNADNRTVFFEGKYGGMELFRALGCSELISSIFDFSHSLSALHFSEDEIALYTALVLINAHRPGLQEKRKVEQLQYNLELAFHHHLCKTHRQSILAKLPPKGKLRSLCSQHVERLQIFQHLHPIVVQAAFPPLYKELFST
Chain of full-length RORγt in Jurkat cells (P51449 other isoform, or with tags, fused parts or gaps): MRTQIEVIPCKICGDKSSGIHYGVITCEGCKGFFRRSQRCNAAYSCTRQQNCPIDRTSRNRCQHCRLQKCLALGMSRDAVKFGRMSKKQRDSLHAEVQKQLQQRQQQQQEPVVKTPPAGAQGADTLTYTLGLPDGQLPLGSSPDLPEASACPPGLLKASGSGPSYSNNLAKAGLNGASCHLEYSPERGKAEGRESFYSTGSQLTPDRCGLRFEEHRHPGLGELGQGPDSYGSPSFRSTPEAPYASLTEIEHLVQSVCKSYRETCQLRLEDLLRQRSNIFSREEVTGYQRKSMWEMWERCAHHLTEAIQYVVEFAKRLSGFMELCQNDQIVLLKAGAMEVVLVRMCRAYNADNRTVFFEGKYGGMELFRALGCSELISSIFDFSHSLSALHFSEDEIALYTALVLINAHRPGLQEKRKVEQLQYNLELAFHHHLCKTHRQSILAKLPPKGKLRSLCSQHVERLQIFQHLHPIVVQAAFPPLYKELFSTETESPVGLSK

| Structure (SMILES) | IC50 [1, 3] [nM] | Ki ([2]; Table 9) [nM] | IC50 [1, 4] [nM] | Ki ([2]; Table 8) [nM] |
| --- | --- | --- | --- | --- |
| CC(C)[C@@H]1c2nc(NC(=O)Cc3ccc(S(C)(=O)=O)cc3)sc2CN1[C@H](C)c1ccc(OC(F)(F)F)cc1 (single isomer, unassigned) | > 1000 | 100 to 1000 | – | – |
| CCS(=O)(=O)c1cnc(CNC(=O)c2nc3c(s2)CN(Cc2ccc(C(F)(F)F)cc2)[C@H]3C(C)C)nc1 | 100 to 1000 | < 100 | – | – |
| CC[C@@H]1c2nc(NC(=O)Cc3ccc(S(C)(=O)=O)cc3)sc2CN1Cc1cccc(C(F)(F)F)c1 | > 1000 | < 100 | – | – |
| CCS(=O)(=O)c1ccc(CC(=O)Nc2nc3c(s2)CN(Cc2ccc(C(F)F)cc2)[C@H]3C(C)C)cc1 [I-A61] | – | – | < 100 | < 100 |
| CCS(=O)(=O)c1ccc(CC(=O)Nc2nc3c(s2)CN(C[C@H]2CC[C@@](C)(OC)CC2)[C@H]3C(C)C)nc1 [I-C6] | – | – | < 100 | < 100 |
| CCS(=O)(=O)c1ccc(CC(=O)Nc2nc3c(s2)CN(C[C@H]2CC[C@@](C)(C#N)CC2)[C@H]3C(C)C)cc1 (single isomer, unassigned) | < 100 | < 100 | – | – |
| CCS(=O)(=O)c1ccc(CC(=O)Nc2nc3c(s2)CN(Cc2ccc(C(F)(F)F)cn2)[C@H]3C(C)C)nc1 | 100 to 1000 | < 100 | – | – |
| CCS(=O)(=O)c1ccc(CC(=O)Nc2nc3c(s2)CN(C[C@H]2CC[C@@H](C(F)(F)F)N(C)C2)[C@H]3C(C)C)cc1 (relative stereo) | > 1000 | < 100 | – | – |
| CCS(=O)(=O)c1ccc(CC(=O)Nc2nc3c(s2)CN(Cc2ccc(C#N)cc2)[C@@H]3C(C)(C)C)cc1 | 100 to 1000 | < 100 | – | – |
| CCS(=O)(=O)c1ccc(CC(=O)Nc2nc3c(s2)CN(Cc2ccnc(C(F)(F)F)c2)[C@@H]3C(C)C)cc1 | > 1000 | 100 to 1000 | – | – |
| CC(C)[C@H]1c2nc(C(=O)NCc3ccc(S(C)(=O)=O)cc3)sc2CN1Cc1ccc(C#N)c(F)c1 | 100 to 1000 | < 100 | – | – |
| CCS(=O)(=O)c1ccc(CC(=O)Nc2nc3c(s2)CN(Cc2ccc(C(F)(F)F)cc2)[C@H]3C(C)C)cc1 [I-A2, (S)-2-(4-(ethylsulfonyl)phenyl)-N-(4-isopropyl-5-(4-(trifluoromethyl)benzyl)-5,6-dihydro-4H-pyrrolo[3,4-d]thiazol-2-yl)acetamide] | – | – | < 100 | < 100 |
| CCS(=O)(=O)c1ccc(CC(=O)Nc2nc3c(s2)CN(C[C@H]2CC[C@@H](C(F)(F)F)N(C4CC4)C2)[C@H]3C(C)C)cc1 (single isomer, unassigned) | > 1000 | < 100 | – | – |
| CCS(=O)(=O)c1ccc(CNC(=O)c2nc3c(s2)CN(Cc2ccc(C(F)(F)F)nc2)[C@H]3C(C)C)cc1 | 100 to 1000 | 100 to 1000 | – | – |
| CCS(=O)(=O)c1ccc(CC(=O)Nc2nc3c(s2)CN(C[C@H]2CC[C@@H](C(F)(F)F)OC2)[C@H]3C(C)C)nc1 (single isomer, unassigned) | 100 to 1000 | < 100 | – | – |
| CCS(=O)(=O)c1ccc(CC(=O)Nc2nc3c(s2)CN(C[C@H]2CC[C@H](C(F)(F)F)N(C4CC4)C2)[C@H]3C(C)C)cc1 (single isomer, unassigned) | > 1000 | < 100 | – | – |
| CCS(=O)(=O)c1ccc(CC(=O)Nc2nc3c(s2)CN(C[C@H]2CC[C@H](C(F)(F)F)NC2)[C@H]3C(C)C)nc1 (single isomer, unassigned) [drawing 211] | 100 to 1000 | 100 to 1000 | – | – |
| CCS(=O)(=O)c1ccc(CC(=O)Nc2nc3c(s2)CN(C[C@@H]2CC[C@H](C(F)(F)F)NC2)[C@H]3C(C)C)nc1 (single isomer, unassigned) | > 1000 | < 100 | – | – |
| CCS(=O)(=O)c1ccc(CC(=O)Nc2nc3c(s2)CN(Cc2ccccc2)[C@H]3C(C)C)cc1 [I-A7] | – | – | > 1000 | < 100 |
| CCS(=O)(=O)c1ccc(CC(=O)Nc2nc3c(s2)CN([C@H](C)c2ccc(Br)cc2F)[C@H]3C(C)C)cc1 [I-A24] | – | – | < 100 | < 100 |
| CC(C)[C@H]1c2nc(NC(=O)Cc3ccc(C#N)cc3)sc2CN1Cc1ccc(C#N)c(OC(F)F)c1 | 100 to 1000 | < 100 | – | – |
| CCS(=O)(=O)c1ccc(CC(=O)Nc2nc3c(s2)CN(Cc2cc(OC(F)F)ccc2F)[C@@H]3C(C)C)cc1 | > 1000 | < 100 | – | – |

| Structure (SMILES) | IC50 [1, 3] [nM] | Ki ([2]; Table 9) [nM] | IC50 [1, 4] [nM] | Ki ([2]; Table 8) [nM] |
| --- | --- | --- | --- | --- |
| CC(C)[C@@H]1c2nc(NC(=O)Cc3ccc(S(C)(=O)=O)cc3)sc2CN1Cc1cccc(F)c1 | > 1000 | < 100 | – | – |
| CCS(=O)(=O)c1ccc(CC(=O)Nc2nc3c(s2)CN(C[C@H]2CCCOC2)[C@H]3C(C)C)cc1 (single isomer, unassigned) | > 1000 | < 100 | – | – |
| CC(C)[C@H]1c2nc(NC(=O)Cc3ccc(S(C)(=O)=O)cc3)sc2CN1Cc1ccc(Cl)cc1 [I-B1, (S)—N-(5-(4-chlorobenzyl)-4-isopropyl-5,6-dihydro-4H-pyrrolo[3,4-d]thiazol-2-yl)-2-(4-(methylsulfonyl)phenyl)acetamide] | – | – | < 100 | < 100 |
| CC(C)[C@H]1c2nc(NC(=O)Cc3ccc(S(C)(=O)=O)cc3F)sc2CN1Cc1ccc(C#N)cc1 [I-M1, (S)—N-(5-(4-cyanobenzyl)-4-isopropyl-5,6-dihydro-4H-pyrrolo[3,4-d]thiazol-2-yl)-2-(2-fluoro-4-(methylsulfonyl)phenyl)acetamide] | – | – | < 100 | < 100 |
| CCS(=O)(=O)c1ccc(CC(=O)Nc2nc3c(s2)CN(Cc2ccc(-c4nnn(C)n4)cc2)[C@H]3C(C)C)cc1 [I-A42] | – | – | < 100 | < 100 |
| CC(C)[C@H]1c2nc(NC(=O)Cc3ccc(Cl)cc3)sc2CN1Cc1ccc(Cl)cc1 | > 1000 | < 100 | – | – |
| CCS(=O)(=O)c1ccc(CC(=O)Nc2nc3c(s2)CN(Cc2ccccc2)[C@@H]3C(C)C)cc1 | > 1000 | < 100 | – | – |
| CC(C)[C@H]1c2nc(NC(=O)Cc3ccc(S(C)(=O)=O)cc3)sc2CN1[C@@H](C)c1ccc(C(F)(F)F)nc1 (single isomer, unassigned) | < 100 | < 100 | – | – |
| CCc1ccc(CN2Cc3sc(NC(=O)Cc4ccc(S(=O)(=O)CC)cc4)nc3[C@@H]2C(C)C)cc1 [I-A63] | – | – | < 100 | < 100 |
| CCS(=O)(=O)c1ccc(CC(=O)Nc2nc3c(s2)CN(Cc2ccc(Cl)cc2)[C@@]3(C)C(C)C)cc1 | < 100 | < 100 | – | – |
| CCS(=O)(=O)c1ccc(CC(=O)Nc2nc3c(s2)CN(Cc2ccc(OC(F)(F)F)c(Cl)c2)[C@H]3C(C)C)nc1 | < 100 | < 100 | – | – |
| CCS(=O)(=O)c1ccc(CC(=O)Nc2nc3c(s2)CN(C[C@@H]2CC[C@H](C(F)(F)F)NC2)[C@H]3C(C)C)cc1 (single isomer, unassigned) | > 1000 | < 100 | – | – |
| CC(C)[C@H]1c2nc(NC(=O)Cc3ccc(S(C)(=O)=O)cc3)sc2CN1Cc1ccc(C#N)cc1 [I-B18] | – | – | < 100 | < 100 |
| CC(C)[C@H]1c2nc(NC(=O)Cc3ccc(S(C)(=O)=O)cc3)sc2CN1[C@H](C)c1ccc(C(F)(F)F)nc1 (single isomer, unassigned) | < 100 | < 100 | – | – |
| CCS(=O)(=O)c1ccc(CC(=O)Nc2nc3c(s2)CN(CC2CCOCC2)[C@H]3C(C)C)cc1 | > 1000 | < 100 | – | – |
| CC(C)[C@H]1c2nc(NC(=O)Cc3ccc(S(C)(=O)=O)cc3)sc2CN1Cc1ccc(C#N)cc1F [I-B17] | – | – | < 100 | < 100 |
| CCS(=O)(=O)c1ccc(CC(=O)Nc2nc3c(s2)CN(CC2CCn4c(C)nnc4C2)[C@H]3C(C)C)cc1 (stereo partly shown) | > 1000 | 100 to 1000 | – | – |
| CCS(=O)(=O)c1ccc(CC(=O)Nc2nc3c(s2)CN(C[C@H]2CC[C@@H](C(F)(F)F)CC2)C3C(C)C)cc1 (stereo partly shown) | > 1000 | < 100 | – | – |
| CC(C)[C@H]1c2nc(NC(=O)Cc3ccc(-c4nnnn4C)cc3)sc2CN1Cc1ccc(Cl)cc1 | > 1000 | 100 to 1000 | – | – |
| CCS(=O)(=O)c1ccc(CC(=O)Nc2nc3c(s2)CN([C@@H](C)Cc2ccccc2C(F)(F)F)[C@@H]3C(C)C)cc1 | > 1000 | < 100 | – | – |
| CC(C)[C@@H]1c2nc(NC(=O)Cc3ccc(S(C)(=O)=O)cc3)sc2CN1Cc1ccc(Cl)cc1 | 100 to 1000 | 100 to 1000 | – | – |
| CCS(=O)(=O)c1ccc(CC(=O)Nc2nc3c(s2)CN(C(C)c2ccc(F)cc2)[C@@H]3C(C)C)cc1 (stereo partly shown) | > 1000 | < 100 | – | – |
